This note sets out measurements from patent US5244895A, “Anti-ulcer agent” (Hidaka; Hiroyoshi, priority 1991, dated 1993).

SMILES strings stand for the structures.

Data set [1] concerns gastric juice secretion. As to the kind of experiment: Anti-gastric juice secretion test, intraperitoneal administration (pylorus ligation). It counts as in vivo, Crj:Wistar rat (male). The note with it: 100 mg/kg intraperitoneal, 30 min before pylorus ligation; for pH of gastric juice: control 1.7; for Amount of gastric juice: control 3.2; for Free hydrochloric acid: control 155; for Total acidity: control 208.

Data set [2] concerns gastric juice secretion. As to the kind of experiment: Anti-gastric juice secretion test, intraduodenal administration (pylorus ligation). It counts as in vivo, Crj:Wistar rat (male). The note with it: 100 mg/kg intraduodenal, 4 h after pylorus ligation; for pH of gastric juice: control 1.7; for Amount of gastric juice: control 2.6; for Free hydrochloric acid: control 116; for Total acidity: control 168. The method, then:
Each 100 mg/kg of the test compounds was administered duodenally to a male Crj:Wistar rat of 205 to 240 g body weight fasted for ca. 24 hours (7 to 8 rats per group) and immediately after the dose the pylorus was ligated under diethyl ether anesthesia. Four hours after the ligation, the animal was killed and the stomach was isolated and the amount and the pH of gastric juice and free hydrochloric acid contained in it and the total acidity of it were measured to examine the effect of inhibiting gastric juice secretion. The test compounds were dosed after dissolved in physiological saline or in physiological saline containing Tween 80 added. Five […] of physiological saline was administered to the control group.

Data set [3] is described as follows: Acute toxicity, oral administration. It counts as in vivo, Sle:ICR mouse (male). The note with it: 300 mg/kg oral, 6 hours observation; for Mortality rate: deaths/mice. The method, then: (§1) Each test compound was administered to a male Sle:ICR mouse of 29 to 32 g body weight fasted for 18 to 20 hours (5 mice per group) to examine the presence of acute toxicity.

A short description of data set [4]: Acute toxicity, intraperitoneal administration. The conditions noted are these: 200 mg/kg intraperitoneal, 6 hours observation; for Mortality rate: deaths/mice. It counts as in vivo, Sle:ICR mouse (male). As for the experimental part: as §1
Data set [5] relates to water immersion restriction stress ulcer. The data set is described as follows: Water immersion restriction stress ulcer, intraperitoneal administration. It counts as in vivo, Crj:Wistar rat (male). The conditions noted are these: 100 mg/kg intraperitoneal; for Gastric damage index: control 22.7; for Inhibition rate: gastric damage index vs control. The method, then: (§2) After the stress loading, the animal was killed by exsanguination and the cardia part of stomach was ligated and then 10 ml of 1% formalin was poured into the stomach and the stomach was extirpated. […] 0.5 ml/body weight of 1% pontamine sky blue physiological saline was injected intravenously 10 minutes before the slaughter. The test compound was administered after dissolved in physiological saline or in physiological saline containing Tween 80 added. Five […] of physiological saline was administered to the control group.

The subject of data set [6] is aspirin ulcer. The data set is described as follows: Anti-aspirin ulcer test, oral administration. It counts as in vivo, Crj:Wistar rat (male). The note with it: 100 mg/kg oral; for Gastric damage index: 30 min before aspirin 200 mg/kg oral, control 76.0; for Gastric damage index / inhibition in vivo at 100 mg/kg: 6 h; for inhibition in vivo at 100 mg/kg: Rattus norvegicus, read-out: Inhibition rate. The method, then:
(§3) Each 100 mg/kg of the test compounds was administered orally to a male Crj:Wistar rat of 198 to 243 g body weight fasted for ca. 24 hours (7 to 8 rats per group) and 30 minutes after the administration 200 mg/5 ml/kg of aspirin suspended in 0.5% sodium CMC aqueous solution was administered orally. Six hours later the animals was killed by exsanguination and the cardia part of stomach was ligated and 10 ml of 1% formaline solution was poured into the stomach and the stomach was extirpated. Then, it was incised along the greater curvature side and washed with physiological saline and the major axis of the spotted and linear erosion and ulcer were measured under a steromicroscope and their total sum per head was calculated as the gastric damage index (mm) and the effect was judged by the inhibiting rate against the control group [(Gastric damage index of the control group-Gastric damage index of the test compound)/Gastric damage index of the control group×100]. 0.5 ml/body weight of 1% pontamine sky blue physiological saline was injected intravenously 10 minutes before the slaughter. The test compound was administered after dissolved in physiological saline or in physiological saline containing Tween 80 added. Five […] of physiological saline was administered to the control group.

For data set [7], the system named is water immersion restriction stress ulcer. As to the kind of experiment: Water immersion restriction stress ulcer, oral administration. It counts as in vivo, Crj:Wistar rat (male). The conditions noted are these: 100 mg/kg oral; for Gastric damage index: 30 min before 6 h water immersion stress, control 15.7; for inhibition in vivo at 100 mg/kg: Rattus norvegicus, 6 h, read-out: Inhibition rate. As for the experimental part:
as §2

Data set [8] relates to aspirin ulcer. As to the kind of experiment: Anti-aspirin ulcer test, intraperitoneal administration. It counts as in vivo, Crj:Wistar rat (male). The note with it: for Gastric damage index: 100 mg/kg intraperitoneal (abdominally injected), control 58.8; for Inhibition rate: gastric damage index vs control, 100 mg/kg intraperitoneal. The method, then:
as §3
Each 100 mg/kg of the test compound was abdominally injected to a male Crj:Wistar rat of 210 to 265 g body weight fasted for ca. 24 hours (7 to 8 rats per group) and the procedures were carried out in a same manner as in oral administration.

Setting [9] is: gastric damage index vs control, aspirin 200 mg/kg.
The mark [10] stands for this setting: gastric damage index vs control, water immersion stress.

For `COc1ccc(CC(CN2CCCN(C(=O)OCc3ccccc3)CC2)N(CCN(C)C)S(=O)(=O)c2cccc3cnccc23)cc1` (stereo not shown) [(16), N-[2-(4-benzyloxycarbonylhomopiperazinyl)-1-(p-methoxybenzyl)ethyl]-N-(2-dimethylaminoethyl)-5-isoquinoline sulfonamide], the “pH of gastric juice” value with gastric juice secretion [1] and in the data set with gastric juice secretion [2] was 2.9 in each case. Also, the “Amount of gastric juice” value was 0.6 ml/100 g body weight in the data set on gastric juice secretion [1] and 0.9 ml/100 g body weight with gastric juice secretion [2]. The figures for the Free hydrochloric acid in the data set on gastric juice secretion [1] and in the data set with gastric juice secretion [2] were 8 μEq/100 body weight and 11 μEq/100 g body weight, respectively. Moreover, the Total acidity was 24 μEq/100 body weight in the data set with gastric juice secretion [1] and 29 μEq/100 g body weight in the data set on gastric juice secretion [2]. For the same compound, the General condition result in data set [3] and in data set [4] was “No abnormality” in each case. The Mortality rate in data set [3] and in data set [4] was 0/5 throughout. Moreover, the Gastric damage index was 5.4 mm in data set [5], 17.0 mm in the data set with aspirin ulcer [6], 4.6 mm in data set [7] and 10.6 mm in the data set on aspirin ulcer [8]. For the same compound, the Inhibition rate was 76% in data set [5] and 82% in the data set on aspirin ulcer [8]. Besides, the inhibition in vivo at 100 mg/kg in the data set on aspirin ulcer [6] (setting [9]) amounted to 78%; in data set [7] (setting [10]) it was 70%.
Regarding `CN(C(Cc1ccc(O)cc1)CN1CCCN(C(=O)OCc2ccccc2)CC1)S(=O)(=O)c1cccc2cnccc12` (stereo not shown) [(14), N-[2-(4-benzyloxycarbonylhomopiperazinyl)-1-(p-hydroxybenzyl)ethyl]-N-methyl-5-isoquinoline sulfonamide], the “pH of gastric juice” value came to 3.0 in the data set on gastric juice secretion [1] and 3.1 in the data set with gastric juice secretion [2]. The “Amount of gastric juice” value in the data set on gastric juice secretion [1] and with gastric juice secretion [2] was 0.6 ml/100 g body weight in each case. Moreover, the Free hydrochloric acid came to 4 μEq/100 body weight in the data set on gastric juice secretion [1] and 8 μEq/100 g body weight with gastric juice secretion [2]. In addition, the Total acidity was 17 μEq/100 body weight in the data set on gastric juice secretion [1] and 11 μEq/100 g body weight in the data set with gastric juice secretion [2]. Further, the General condition entry in data set [3] and in data set [4] was “No abnormality” in each case. The Mortality rate in data set [3] and in data set [4] was 0/5 in each case. Besides, the Gastric damage index in data set [5] is given as 3.9 mm; in the data set on aspirin ulcer [6], 11.2 mm; in data set [7], 4.3 mm; in the data set on aspirin ulcer [8] it was 5.3 mm. Also, the Inhibition rate in data set [5] is given as 83%; in the data set with aspirin ulcer [8], 91%. The inhibition in vivo at 100 mg/kg in the data set on aspirin ulcer [6] (setting [9]) worked out at 85%; in data set [7] (setting [10]) it was 73%.
For `CN(C(Cc1ccc(O)cc1)CN1CCN(C(=O)OCc2ccccc2)CC1)S(=O)(=O)c1cccc2cnccc12` (stereo not shown) [(4), N-[2-(4-benzyloxycarbonylpiperazinyl)-1-(p-hydroxybenzyl)ethyl]-N-methyl-5-isoquinoline sulfonamide], in the data set on gastric juice secretion [2], the “pH of gastric juice” value is 2.3, the “Amount of gastric juice” value is 1.8 ml/100 g body weight, the Free hydrochloric acid came out at 36 μEq/100 g body weight and the Total acidity is given as 74 μEq/100 g body weight. Further, in data set [3], the General condition result is recorded as “No abnormality” and the Mortality rate is 0/5. Besides, the Gastric damage index with aspirin ulcer [6] was found to be 34.6 mm. For the same compound, the inhibition in vivo at 100 mg/kg in the data set with aspirin ulcer [6] (setting [9]) amounted to 55%. The same compound came in with a Gastric damage index in data set [7] of 8.4 mm. Also, in data set [7] (setting [10]), the inhibition in vivo at 100 mg/kg turned out to be 46%.
Take `COc1ccc(CC(CN2CCCN(C(=O)OCc3ccccc3)CC2)N(CCN)S(=O)(=O)c2cccc3cnccc23)cc1` (stereo not shown) [(15), N-[2-(4-benzyloxycarbonylhomopiperazinyl)-1-(p-methoxybenzyl)ethyl]-N-(2-aminoethyl)-5-isoquinoline sulfonamide]: the “pH of gastric juice” value in the data set on gastric juice secretion [1] and in the data set with gastric juice secretion [2] was 2.6 each time. The “Amount of gastric juice” value was 1.3 ml/100 g body weight with gastric juice secretion [1] and 1.1 ml/100 g body weight with gastric juice secretion [2]. In addition, the Free hydrochloric acid came out at 36 μEq/100 body weight in the data set with gastric juice secretion [1] and 22 μEq/100 g body weight in the data set on gastric juice secretion [2]. For the same compound, the Total acidity in the data set on gastric juice secretion [1] turned out to be 74 μEq/100 body weight; in the data set on gastric juice secretion [2], 43 μEq/100 g body weight. The Mortality rate in data set [3] and in data set [4] was 0/5 throughout. Further, the Gastric damage index is reported as 6.6 mm in data set [5], 35.8 mm in the data set on aspirin ulcer [6], 6.6 mm in data set [7] and 11.8 mm in the data set on aspirin ulcer [8]. Moreover, the Inhibition rate in data set [5] came to 71%; in the data set on aspirin ulcer [6] (setting [9]), 64%; in data set [7] (setting [10]), 58%; in the data set on aspirin ulcer [8] it was 80%.
Turning to `O=S(=O)(NC(Cc1ccc(O)cc1)CN1CCC(OCc2ccc(Cl)c(Cl)c2)CC1)c1cccc2cnccc12` (stereo not shown) [(7), N-{1-(p-hydroxybenzyl)-2-[4-(3,4-dichlorobenzyloxy)piperidino]ethyl}-5-isoquinoline sulfonamide], the “pH of gastric juice” value in the data set on gastric juice secretion [1] is 2.6; in the data set with gastric juice secretion [2], 2.5. In addition, the “Amount of gastric juice” value in the data set with gastric juice secretion [1] was 1.5 ml/100 g body weight; in the data set on gastric juice secretion [2], 1.2 ml/100 g body weight. Further, the Free hydrochloric acid in the data set on gastric juice secretion [1] came to 32 μEq/100 body weight; in the data set with gastric juice secretion [2], 26 μEq/100 g body weight. In addition, the Total acidity came to 71 μEq/100 body weight with gastric juice secretion [1] and 63 μEq/100 g body weight with gastric juice secretion [2]. Besides, the Gastric damage index in data set [5] turned out to be 7.0 mm; in the data set with aspirin ulcer [6], 26.9 mm; in data set [7] it was 5.4 mm; in the data set on aspirin ulcer [8], 15.3 mm. The Inhibition rate in data set [5] was 69%; in the data set with aspirin ulcer [8] it was 74%. Also, the inhibition in vivo at 100 mg/kg stood at 65% with aspirin ulcer [6] (setting [9]) and 66% in data set [7] (setting [10]).
`COc1ccc(CC(CN2CCN(C(=O)OCc3ccccc3)CC2)N(C)S(=O)(=O)c2cccc3cnccc23)cc1` (stereo not shown) [(5), N-[2-(4-benzyloxycarbonylpiperazinyl)-1-(p-methoxybenzyl)ethyl]-N-methyl-5-isoquinoline sulfonamide]: in the data set on gastric juice secretion [2], the “pH of gastric juice” value came out at 2.3, the “Amount of gastric juice” value stood at 1.8 ml/100 g body weight, the Free hydrochloric acid was found to be 48 μEq/100 g body weight and the Total acidity is recorded as 80 μEq/100 g body weight. In addition, in data set [3], the General condition result is given as “No abnormality” and the Mortality rate is listed as 0/5. In the data set with aspirin ulcer [6], this compound yielded a Gastric damage index of 36.5 mm. In addition, in the data set on aspirin ulcer [6] (setting [9]), the inhibition in vivo at 100 mg/kg amounted to 53%. For the same compound, the Gastric damage index in data set [7] is reported as 7.7 mm. In data set [7] (setting [10]), the inhibition in vivo at 100 mg/kg was found to be 51%.
